Test results as given in patent publication US6890950B2, “Lapachone delivery systems, compositions and uses related thereto” (priority 2002, dated 2005).
Where “and” joins values, the source holds several entries; their conditions need not be identical. Equal entries are not always repeated.

Columns and labels:
LNCaP = test: TUNEL apoptosis assay; format: cell-based, human; conditions: 10 μM, 4h
DU-145 = test: TUNEL apoptosis assay; format: cell-based, human; conditions: 10 μM, 4h, TUNEL 48h
PC-3 = test: TUNEL apoptosis assay; format: cell-based, human; conditions: 10 μM, 4h, TUNEL 48h
A549 NSCLC cells = test: survival and apoptosis (PARP cleavage) of NSCLC cells; format: cell-based, human; conditions: 50 μM, 4 h
Text: NQO1-dependent apoptosis of A549 or CC-10 NSCLC cells by β-lap.

[1] = tested on: NQO1-containing LNCaP clones; test: colony forming ability assays; format: cell-based, human; conditions: 4-h pulses
Experimental: FIG. 14. […] Colony forming ability assays (CFAs) were performed three times, each in triplicate.
LNCaP cells were transfected with either pcDNA3 empty vector or pcDNA3 containing full-length NQO1 cDNA.

[2] = association constant (Kc) from phase solubility diagrams; format: physicochemical; conditions: for association constant Kc (phase solubility): inclusion complex with β-lap, PBS, 25° C., 1:1
Experimental: Solubility studies were performed by adding excess amount of β-lap to a series of PBS buffer that contain different concentrations of each CD molecule ranging from zero to its solubility limit (see Table 1 for the solubility limit of each CD molecule). A schematic diagram of the intermolecular interactions and their effect on solubility is provided as FIG. 1. The suspensions were stirred at 25° C. until dissolution equilibrium was reached. Then aliquots were withdrawn, filtered (Nylon syringe filter 0.2 μm pore size from Fisher Scientific (Pittsburg, Pa.)) and analyzed for β-lap concentrations by UV-V is spectrophotometry (λmax=257.2 nm, ε=109.6 ml/(mg·cm)). Phase solubility diagram for each CD was obtained by plotting the β-lap solubility at dissolution equilibrium as a function of the CD concentration. The association constant (Kc) [formula] for the complex formation was calculated based on Equation 1 assuming a 1:1 ratio of complex formation (T. Higuchi and K. A. Connors. Adv Anal Chem Instrum. 4:117-212 (1965)). ^1H NMR Study of CD.β-lap Inclusion Complexes

[3] = phase solubility studies of β-lap with cyclodextrins; format: physicochemical
Experimental: Solubility studies were performed by adding excess amount of β-lap to a series of PBS buffer that contain different concentrations of each CD molecule ranging from zero to its solubility limit (see Table 1 for the solubility limit of each CD molecule). A schematic diagram of the intermolecular interactions and their effect on solubility is provided as FIG. 1. The suspensions were stirred at 25° C. until dissolution equilibrium was reached. […] Phase solubility diagram for each CD was obtained by plotting the β-lap solubility at dissolution equilibrium as a function of the CD concentration.

Compound: CC[C@@]1(O)C(=O)OCc2c1cc1n(c2=O)Cc2cc3ccccc3nc2-1 [Camptothecin, camptothecin]
- Apoptosis (%) After Drug Treatment (LNCaP; LNCaP + DC (50 μM dicoumarol), TUNEL 48h): 33 ± 9%
- Apoptosis (%) After Drug Treatment (LNCaP; LNCaP + DVED, TUNEL 48h): 10 ± 3%
- Apoptosis (%) After Drug Treatment (LNCaP; LNCaP, TUNEL 48h post-treatment): 30 ± 5%
- Apoptosis (%) After Drug Treatment (DU-145; DU-145 + DC (50 μM dicoumarol)): 43 ± 12%
- Apoptosis (%) After Drug Treatment (DU-145; DU-145 + DVED): 10 ± 5%
- Apoptosis (%) After Drug Treatment (DU-145; DU-145): 30 ± 06%
- Apoptosis (%) After Drug Treatment (PC-3; PC-3 + DC (50 μM dicoumarol)): 22 ± 7%
- Apoptosis (%) After Drug Treatment (PC-3; PC-3 + DVED): 6 ± 5%
- Apoptosis (%) After Drug Treatment (PC-3; PC-3): 23 ± 3%

Compound: O=c1oc2ccccc2c(O)c1Cc1c(O)c2ccccc2oc1=O [dicoumarol]
- effect on cell growth (survival), alone (A549 NSCLC cells): no effect

Compound: CC1=CC(=O)c2ccccc2C1=O [menadione]
- sensitivity compared to NQO1-deficient LN-pcDNA3 vector alone cells [1]: resistant

Compound: OC[C@H]1O[C@@H]2O[C@H]3[C@H](O)[C@@H](O)[C@@H](O[C@H]4[C@H](O)[C@@H](O)[C@@H](O[C@H]5[C@H](O)[C@@H](O)[C@@H](O[C@H]6[C@H](O)[C@@H](O)[C@@H](O[C@H]7[C@H](O)[C@@H](O)[C@@H](O[C@H]1[C@H](O)[C@H]2O)O[C@@H]7CO)O[C@@H]6CO)O[C@@H]5CO)O[C@@H]4CO)O[C@@H]3CO [α-CD]
- association constant Kc (phase solubility) [2]: 20.0 ± 0.7 M⁻¹ and 20 M⁻¹

Compound: OC[C@H]1O[C@@H]2O[C@H]3[C@H](O)[C@@H](O)[C@@H](O[C@H]4[C@H](O)[C@@H](O)[C@@H](O[C@H]5[C@H](O)[C@@H](O)[C@@H](O[C@H]6[C@H](O)[C@@H](O)[C@@H](O[C@H]7[C@H](O)[C@@H](O)[C@@H](O[C@H]8[C@H](O)[C@@H](O)[C@@H](O[C@H]9[C@H](O)[C@@H](O)[C@@H](O[C@H]1[C@H](O)[C@H]2O)O[C@@H]9CO)O[C@@H]8CO)O[C@@H]7CO)O[C@@H]6CO)O[C@@H]5CO)O[C@@H]4CO)O[C@@H]3CO [γ-CD]
- Kc increase over α-CD (factor) [2]: 8
- association constant Kc (phase solubility) [2]: 160 ± 5 M⁻¹ and 160 M⁻¹

Compound: hydroxypropyl β-cyclodextrin [HPβ-CD]
- solubility (limit) of HPβ-CD [3]: 360 mM
